Laboratory results taken from publication PMC12649225, “Machine Learning-Identified Potent Antimicrobial Peptides Against Multidrug-Resistant Bacteria and Skin Infections” (Antibiotics, 2025).
Where two headings read alike, the source gives them in different places. Residues, ends and D or L forms follow the SMILES beside them.

Columns and labels:
K. pneumoniae LUH15104 = type: cell-based; details: for LC99.9 K. pneumoniae LUH15104 50% Plasma 2 h / LC99.9 K. pneumoniae LUH15104 RPMI 2 h: LUH15104, 2 h; for LC99.9 K. pneumoniae LUH15104 50% Plasma 18 h / LC99.9 K. pneumoniae LUH15104 RPMI 18 h: LUH15104, 18 h
Experimental: (§1) The bacterial strains used in this study included S. aureus JAR060131 [54] and the MDR ESKAPE pathogens Enterococcus faecium LUH15122, S. aureus LUH14616, Klebsiella pneumoniae LUH15104, A. baumannii RUH875 [55], Pseudomonas aeruginosa LUH15103, Enterobacter cloacae LUH15114, and the colistin-resistant Escherichia coli LUH15117. Before each experiment, bacteria from frozen stocks were cultured at 37 °C for 18–24 h on sheep blood agar plates (BioMérieux, Marcy-l’Étoile, France). All strains were then cultured from colonies either in tryptic soy broth (TSB; Oxoid, Basingstoke, UK) for A. baumannii, S. aureus, and E. faecium, or in brain heart infusion broth (BHI; Oxoid) for K. pneumoniae, P. aeruginosa, E. cloacae, and E. coli at 37 °C with shaking at 120 rpm for 18–24 h. Subsequently, bacteria were cultured to mid-logarithmic phase in the media described above at 37 °C with shaking at 120 rpm for 3 h. Bacteria were then washed twice with PBS and diluted to the required inoculum suspension concentration in Roswell Park Memorial Institute (RPMI)-1640 medium containing 20 mM HEPES and L-glutamine but without sodium bicarbonate (Sigma-Aldrich; hereafter referred to as RPMI), based on optical density at 620 nm. RPMI was selected because it supports bacterial growth without impairing AMP activity.
(§2) Bactericidal activity was assessed as described by de Breij et al.. Briefly, mid-logarithmic phase bacterial cultures were diluted to a final concentration of 1 × 10^7 colony-forming units (CFU)/mL in RPMI. Then, 10 µL was added to a final volume of 100 µL in RPMI (final concentration: 1 × 10^6 CFU/mL). Cultures were exposed to peptides either in RPMI or RPMI supplemented with 50% (v/v) human plasma (hereafter referred to as 50% plasma), obtained from four healthy volunteers after informed consent, frozen after collection, and pooled (Sanquin, Amsterdam, The Netherlands). Assays were performed in duplicate using round-bottom polypropylene microtiter plates (Costar, Arlington, VA, USA) and repeated three times. In the initial screening phase (Table 1, Table 2 and Table S1), peptide solutions of 1, 10, and 100 μM (final concentration) were tested against A. baumannii RUH875 and S. aureus JAR060131 in RPMI and in 50% plasma. After this selection process, two lead candidates, their RI variants, and reference peptides were tested with a final concentration range of 0.12 to 120 µM (two-fold dilutions) in RPMI and in 50% plasma (Table 3). The peptides were also tested against ESKAPE pathogens, with Synthetic Antimicrobial and Antibiofilm Peptide (SAAP)-148 as a reference peptide (Table 4).RPMI or 50% plasma served as no-treatment controls. After 2 and 18 h of incubation at 37 °C with shaking at 120 rpm in a humidified environment, the numbers of viable bacteria were quantified. Bactericidal activity was expressed as the lethal concentration 99.9% (LC99.9), defined as the lowest peptide concentration that killed ≥99.9% of bacteria within 2 h (LC99.9_2h) or 18 h (LC99.9_18h) compared to the initial inoculum.

S. aureus JAR060131 [1] = type: cell-based; details: for LC99.9 S. aureus JAR060131 50% Plasma 18 h: JAR060131, 18 h
Experimental: as §1, §2

E. cloacae LUH15114 = type: cell-based; details: for LC99.9 E. cloacae LUH15114 50% Plasma 2 h / LC99.9 E. cloacae LUH15114 RPMI 2 h: LUH15114, 2 h
Experimental: as §1, §2

P. aeruginosa LUH15103 = type: cell-based; details: for LC99.9 P. aeruginosa LUH15103 50% Plasma 2 h / LC99.9 P. aeruginosa LUH15103 RPMI 2 h: LUH15103, 2 h; for LC99.9 P. aeruginosa LUH15103 50% Plasma 18 h / LC99.9 P. aeruginosa LUH15103 RPMI 18 h: LUH15103, 18 h
Experimental: as §1, §2

S. aureus LUH14616 = type: cell-based; details: for LC99.9 S. aureus LUH14616 50% Plasma 2 h / LC99.9 S. aureus LUH14616 RPMI 2 h: LUH14616, 2 h; for LC99.9 S. aureus LUH14616 50% Plasma 18 h / LC99.9 S. aureus LUH14616 RPMI 18 h: LUH14616, 18 h
Experimental: as §1, §2

A. baumannii RUH875 = experiment: microbe, parasite or virus in culture; type: cell-based, Acinetobacter baumannii; details: RPMI, 48 h
Experimental: (§3) The potential for resistance development to GDST-038, GDST-045, and their RI variants was assessed as described by Habets and Brockhurst. Resistance development to the antibiotics rifampicin and ciprofloxacin (both from Sigma-Aldrich) was evaluated for comparison. Briefly, 10 μL of a mid-logarithmic phase culture of A. baumannii RUH875 or S. aureus JAR060131 was added to 90 μL of peptide (final concentrations: 0.23 to 120 μM) or antibiotic (final concentrations: 0.03 to 256 μg/mL) solution in RPMI, in 96-well polypropylene round-bottom plates (Costar). All incubations were performed in quadruplicate. Plates were sealed with breathable seals (Greiner) and incubated at 37 °C with shaking at 120 rpm in a humidified environment for 18 h (S. aureus) or 48 h (A. baumannii).
(§4) The minimum inhibitory concentration (MIC), defined as the lowest concentration that inhibited visible bacterial growth, was then determined. Subsequently, 2 μL from the 0.5-fold MIC condition was transferred to fresh medium containing a concentration series ranging from 0.5- to 8-fold the new MIC. This procedure was repeated over 22 consecutive passages to monitor resistance development.

S. aureus JAR060131 [2] = experiment: microbe, parasite or virus in culture; type: cell-based, Staphylococcus aureus; details: RPMI, 18 h
Experimental: as §3, §4

Molecule | LC99.9 K. pneumoniae LUH15104 50% Plasma 2 h (K. pneumoniae LUH15104) [µM] | LC99.9 K. pneumoniae LUH15104 RPMI 2 h (K. pneumoniae LUH15104) [µM] | LC99.9 K. pneumoniae LUH15104 50% Plasma 18 h (K. pneumoniae LUH15104) [µM] | LC99.9 K. pneumoniae LUH15104 RPMI 18 h (K. pneumoniae LUH15104) [µM] | LC99.9 S. aureus JAR060131 50% Plasma 2 h (S. aureus JAR060131 [1]; JAR060131, 2 h) [µM] | LC99.9 S. aureus JAR060131 RPMI 2 h (S. aureus JAR060131 [1]; JAR060131, 2 h) [µM] | LC99.9 S. aureus JAR060131 50% Plasma 18 h (S. aureus JAR060131 [1]) [µM] | LC99.9 E. cloacae LUH15114 50% Plasma 2 h (E. cloacae LUH15114) [µM] | LC99.9 E. cloacae LUH15114 RPMI 2 h (E. cloacae LUH15114) [µM] | LC99.9 E. cloacae LUH15114 50% Plasma 18 h (E. cloacae LUH15114; LUH15114, 18 h) [µM] | LC99.9 E. cloacae LUH15114 RPMI 18 h (E. cloacae LUH15114; LUH15114, 18 h) [µM] | LC99.9 P. aeruginosa LUH15103 50% Plasma 2 h (P. aeruginosa LUH15103) [µM] | LC99.9 P. aeruginosa LUH15103 RPMI 2 h (P. aeruginosa LUH15103) [µM] | LC99.9 P. aeruginosa LUH15103 50% Plasma 18 h (P. aeruginosa LUH15103) [µM] | LC99.9 P. aeruginosa LUH15103 RPMI 18 h (P. aeruginosa LUH15103) [µM] | LC99.9 S. aureus LUH14616 50% Plasma 2 h (S. aureus LUH14616) [µM] | LC99.9 S. aureus LUH14616 RPMI 2 h (S. aureus LUH14616) [µM] | LC99.9 S. aureus LUH14616 50% Plasma 18 h (S. aureus LUH14616) [µM] | LC99.9 S. aureus LUH14616 RPMI 18 h (S. aureus LUH14616) [µM] | further results
CC[C@@H](C)[C@@H](NC(=O)[C@@H](CC(C)C)NC(=O)[C@@H](CCCCN)NC(=O)[C@@H](CCCCN)NC(=O)[C@H](NC(=O)[C@@H](Cc1c[nH]c2ccccc12)NC(=O)[C@@H](CCCNC(=N)N)NC(=O)[C@@H](Cc1ccccc1)NC(=O)[C@@H](CC(C)C)NC(C)=O)C(C)C)C(=O)N[C@H](CCCCN)C(=O)N[C@@H](C(=O)N[C@H](Cc1c[nH]c2ccccc12)C(=O)N[C@H](CCCNC(=N)N)C(=O)N[C@H](CCCCN)C(N)=O)C(C)C [GDST-045-RI] (HELM PEPTIDE1{[ac].[dL].[dF].[dR].[dW].[dV].[dK].[dK].[dL].[dI].[dK].[dV].[dW].[dR].[dK].[am]}$$$$V2.0; N-terminus and C-terminus assumed) | 15 | 15 | 7.5 | 7.5 | 3.75 | 1.88 | 1.88 | 120 | 15 | 30 | 3.75 | 30 | 3.75 | 30 | 3.75 | 15 | 0.94 | 1.88 | 0.94 | –
CC[C@@H](C)[C@@H](NC(=O)[C@@H](C)NC(=O)[C@@H](CCCCN)NC(=O)[C@@H](CCCCN)NC(=O)[C@@H](Cc1c[nH]c2ccccc12)NC(=O)[C@@H](Cc1c[nH]c2ccccc12)NC(=O)[C@@H](CCCNC(=N)N)NC(=O)[C@@H](CC(C)C)NC(=O)[C@@H](CC(C)C)NC(C)=O)C(=O)N[C@H](CCCCN)C(=O)N[C@@H](C(=O)N[C@H](Cc1c[nH]c2ccccc12)C(=O)N[C@H](CCCNC(=N)N)C(=O)N[C@H](CCCCN)C(N)=O)C(C)C [GDST-038-RI] (HELM PEPTIDE1{[ac].[dL].[dL].[dR].[dW].[dW].[dK].[dK].[dA].[dI].[dK].[dV].[dW].[dR].[dK].[am]}$$$$V2.0; N-terminus and C-terminus assumed) | 15 | 15 | 3.75 | 7.5 | 3.75 | – | 3.75 | 60 | 30 | – | – | 30 | 15 | 15 | 7.5 | 30 | – | – | 0.47 | –
Ac-LKRVWKRVFKLLKRYWRQLKKPVR-NH2 (N-terminus and C-terminus assumed) [SAAP-148, reference compound] | – | – | – | – | – | – | – | – | – | – | – | – | – | – | – | – | – | – | – | E. cloacae eradicated at lower concentrations in plasma (E. cloacae LUH15114; 50% plasma vs RPMI, 18 h): 4 fold
Ac-KRWVKILKKVWRFL-NH2 [GDST-045] | 15 | 0.94 | 7.5 | 1.88 | 3.75 | 0.94 | 1.88 | 60 | 1.88 | 30 | 1.88 | 60 | 1.88 | 30 | 3.75 | 15 | 0.94 | 1.88 | 0.94 | MIC A. baumannii at passage 16 (peak) (A. baumannii RUH875): 7.50 µM; MIC A. baumannii at the 1st passage (A. baumannii RUH875; median of four replicates): 0.94 µM; MIC A. baumannii at the 22nd passage (A. baumannii RUH875; serial passage at sub-inhibitory concentrations): 0.47 µM; MIC S. aureus, constant throughout all passages (S. aureus JAR060131 [2]; 22 passages): 0.47 µM
Ac-KRWVKIAKKWWRLL-NH2 [GDST-038] | 7.5 | 3.75 | 3.75 | 3.75 | – | 0.94 | 0.94 | 60 | 3.75 | – | – | 15 | 7.5 | 15 | 3.75 | 7.5 | 0.94 | 0.94 | 0.94 | MIC A. baumannii, stable over 22 passages (A. baumannii RUH875): 0.47 µM; MIC S. aureus at the 22nd passage (S. aureus JAR060131 [2]): 1.88 µM; MIC S. aureus at the 1st passage (S. aureus JAR060131 [2]; median of four replicates): 0.94 µM; LC99.9 S. aureus JAR060131 50% Plasma 2 h (S. aureus JAR060131 [1]; 50% plasma, 2 h, median of three independent experiments): 1.88 µM; LC99.9 E. cloacae LUH15114 50% Plasma 18 h (E. cloacae LUH15114; 50% plasma, 18 h, median of three independent experiments): 1.88 µM; LC99.9 E. cloacae LUH15114 RPMI 18 h (E. cloacae LUH15114; RPMI, 18 h, median of three independent experiments): 1.88 µM
